Patent US5455249A, “Phosphorylcarbamates of rapamycin and oxime derivatives thereof” (priority 1994, dated 1995)
Values joined by “and” are separate entries in the source; they are usually repeats but may differ in a detail not shown here. Equal entries are not always repeated.

What was measured:
[1] = tested on: lymphocyte (thymocyte / T-cell) proliferation; test: Comitogen-induced thymocyte proliferation procedure (LAF); type: cell-based, normal BALB/c mice; conditions: for inhibition at 0.1 µM / IC50: Mus musculus; for inhibition at 0.1 µM: T-cell, read-out: % Inhib. (percent inhibition of T-cell proliferation at 0.1 μM); for IC50: Thymocyte, thymus cells of BALB/c mice cultured 72 hours with PHA and IL-1, tritiated thymidine pulse during last six hours; for LAF (ratio) compared with rapamycin: >1 means test compound inhibits thymocyte proliferation more than rapamycin
Description: (§1) Immunosuppressive activity for representative compounds of this invention was evaluated in an in vitro standard pharmacological test procedure to measure lymphocyte proliferation (LAF) and in an in vivo standard pharmacological test procedure which evaluated the survival time of a pinch skin graft.
The comitogen-induced thymocyte proliferation procedure (LAF) was used as an in vitro measure of the immunosuppressive effects of representative compounds. Briefly, cells from the thymus of normal BALB/c mice are cultured for 72 hours with PHA and IL-1 and pulsed with tritiated thymidine during the last six hours. Cells are cultured with and without various concentrations of rapamycin, cyclosporin A, or test compound. Cells are harvested and incorporated radioactivity is determined. Inhibition of lymphoproliferation is assessed as percent change in counts per minute from non-drug treated controls. For each compound evaluated, rapamycin was also evaluated for the purpose of comparison. An IC50 was obtained for each test compound as well as for rapamycin. […] The results obtained are provided as an IC50 and as the percent inhibition of T-cell proliferation at 0.1 μM. The results obtained for the representative compounds of this invention were also expressed as a ratio compared with rapamycin. A positive ratio indicates immunosuppressive activity. […] Calculation of the ratio is shown below. [formula]

pinch skin graft = test: Pinch skin graft survival time; type: in vivo, male BALB/c donors, male C3H(H-2K) recipients; conditions: 4 mg/kg, intraperitoneally or orally; untreated controls rejected within 6-7 days
Description: as §1
Representative compounds of this invention were also evaluated in an in vivo test procedure designed to determine the survival time of pinch skin graft from male BALB/c donors transplanted to male C3 H(H-2K) recipients. The method is adapted from Billingham R. E. and Medawar P. B., J. Exp. Biol. 28:385-402, (1951 ). Briefly, a pinch skin graft from the donor was grafted on the dorsum of the recipient as a allograft, and an isograft was used as control in the same region. The recipients were treated with either varying concentrations of test compounds intraperitoneally or orally. Rapamycin was used as a test control. Untreated recipients serve as rejection control. The graft was monitored daily and observations were recorded until the graft became dry and formed a blackened scab. This was considered as the rejection day. The mean graft survival time (number of days±S.D.) of the drug treatment group was compared with the control group. […] Results are expressed as the mean survival time in days. Untreated (control) pinch skin grafts are usually rejected within 6-7 days. The results shown in Table 1 are based on a dose of 4 mg/kg of test compound. A survival time of 12.0 ±1.7 days was obtained for rapamycin at 4 mg/kg.

[2] = tested on: adjuvant arthritis model, a model for rheumatoid arthritis; conditions: in vivo; cited from earlier work
[3] = alone or in combination with picibanil; cited from earlier work
Candida albicans = conditions: in vitro and in vivo; cited from earlier work
[4] = tested on: experimental allergic encephalomyelitis model, a model for multiple sclerosis; conditions: in vivo; cited from earlier work
[5] = tested on: formation of IgE-like antibodies; conditions: in vivo; cited from earlier work

SMILES | inhibition at 0.1 µM [1] | IC50 [1] | LAF (ratio) compared with rapamycin [1] | Skin Graft mean survival time (days ± SD) (pinch skin graft) | effect in the adjuvant arthritis model [2] | antitumor activity [3] | antifungal activity (Candida albicans) | effect in the experimental allergic encephalomyelitis model [4] | inhibition of the formation of IgE-like antibodies [5]
CCOP(=O)(NC(=O)O[C@@H]1CC[C@@H](C[C@@H](C)[C@@H]2C/C(=N\OC)[C@H](C)/C=C(\C)[C@@H](O)[C@@H](OC)C(=O)[C@H](C)C[C@H](C)/C=C/C=C/C=C(\C)[C@@H](OC)C[C@@H]3CC[C@@H](C)[C@@](O)(O3)C(=O)C(=O)N3CCCC[C@H]3C(=O)O2)C[C@H]1OC)OCC [Example 3, Rapamycin 42-ester with (diethoxyphosphoryl)carbamic acid (E)-27-O-(methyl)oxime] | 51% | 0.099 µM | 0.05 | – | – | – | – | – | –
CCOP(=O)(NC(=O)O[C@@H]1CC[C@@H](C[C@@H](C)[C@@H]2C/C(=N/OC)[C@H](C)/C=C(\C)[C@@H](O)[C@@H](OC)C(=O)[C@H](C)C[C@H](C)/C=C/C=C/C=C(\C)[C@@H](OC)C[C@@H]3CC[C@@H](C)[C@@](O)(O3)C(=O)C(=O)N3CCCC[C@H]3C(=O)O2)C[C@H]1OC)OCC [Example 4, Rapamycin 42-ester with (diethoxyphosphoryl)carbamic acid (Z)-27-O-(methyl)oxime] | 82% | 0.0419 µM | 0.01 | – | – | – | – | – | –
CCOP(=O)(NC(=O)O[C@@H]1CC[C@@H](C[C@@H](C)[C@@H]2CC(=O)[C@H](C)/C=C(\C)[C@@H](O)[C@@H](OC)C(=O)[C@H](C)C[C@H](C)/C=C/C=C/C=C(\C)[C@@H](OC)C[C@@H]3CC[C@@H](C)[C@@](O)(O3)C(=O)C(=O)N3CCCC[C@H]3C(=O)O2)C[C@H]1OC)OCC [Example 2, Rapamycin 42-ester with (diethoxyphosphoryl)carbamic acid] | 95% | 0.01 µM | 0.44 | 10.2 ± 0.4 days and 10.0 ± 0.6 days | – | – | – | – | –
CCOP(=O)(NC(=O)O[C@@H]1/C(C)=C/[C@@H](C)C(=O)C[C@@H]([C@H](C)C[C@@H]2CC[C@@H](OC(=O)NP(=O)(OCC)OCC)[C@H](OC)C2)OC(=O)[C@@H]2CCCCN2C(=O)C(=O)[C@]2(O)O[C@@H](CC[C@H]2C)C[C@H](OC)/C(C)=C/C=C/C=C/[C@@H](C)C[C@@H](C)C(=O)[C@@H]1OC)OCC [Example 1, Rapamycin 31,42-diester with (diethoxyphosphoryl)carbamic acid] | 72% | 0.0909 µM | 0.04 | 7.2 ± 0.4 days | – | – | – | – | –
CO[C@H]1C[C@@H]2CC[C@@H](C)[C@@](O)(O2)C(=O)C(=O)N2CCCC[C@H]2C(=O)O[C@H]([C@H](C)C[C@@H]2CC[C@@H](O)[C@H](OC)C2)CC(=O)[C@H](C)/C=C(\C)[C@@H](O)[C@@H](OC)C(=O)[C@H](C)C[C@H](C)/C=C/C=C/C=C/1C [rapamycin] | – | 0.0004 to 0.0051 µM | – | 12.0 ± 1.7 days | effective | antitumor activity | antifungal activity, particularly against Candida albicans, both in vitro and in vivo | effective | effectively inhibited the formation of IgE-like antibodies
